Experiments:
rat primary HSCs = assay: HSCs apoptosis by flow cytometry using propidium iodide staining; assay type: cell-based; details: 1% (w/vol)
Procedure: A 10% (w/v) FFA-free BSA (Sigma) solution was prepared in ddH2O and maintained at 55° C. in a water bath. 10 mM FFA/1% BSA solution was obtained by complexing the appropriate amount of palmitate stock solution to 10% BSA at 55° C. for another 30 min. The above solution was then cooled to 25° C., filter sterilized and stored at −20° C. until use. Primary hepatocytes were grown in DMEM supplemented with palmitate (0.4 mM). After 24 h. CM was clarified by centrifugation at 6000 g to remove cell debris, sterile filtered with a 0.45 μm pore size membrane filter and stored in aliquots at −20° C. until use.
Hepatic Stellate cells: Primary hepatic stellate cells were isolated from Wistar rats as described previously (7). […] HSCs activation was assessed by flow cytometry by evaluating alpha-smooth muscle Actin (α-SMA) and Collagen type I alpha 1 (COLIA1) protein expression. α-SMA and COLIA1 antibodies were obtained from Thermo Fisher scientific (Waltham, MA). Flow cytometric analysis was conducted with CytoFlex (Beckman Coulter, Brea, CA) and data analyzed with Kaluza software (Beckman Coulter, Brea, CA). […]
Subsequently, protein expression of two established markers of HSCs activation, namely collagen type 1 (COLA1A) and alpha-smooth muscle actin (αSMA), was determined by flow cytometry analysis. […] Next, the inventors analyzed the effect of DODA on HSCs apoptosis. […]

NAMPT = NAMPT enzyme levels in endothelial cells; assay type: cell-based; details: EOMA endothelial cells, 6 hours; p=0.018
From the text: To that end, the inventors used endothelial cells (EOMA cells) and liver cells (AML-12 cells) in vitro and quantified various markers in response to exposure of the cells to environmental challenge in the presence and absence of DDA at low concentrations. Unless indicated otherwise, the DDA concentration in the in vitro experiments was 5 mcg per microliter. More specifically, the inventors measured p-H2AX protein levels as a marker for DNA damage, PGC-1α protein levels as a marker for mitochondrial biogenesis, NAMPT enzyme levels as a marker for potential for NAD+ production, and total antioxidant capacity as a marker of cellular health. In addition, the inventors also measured global SIRT activity as a gauge of activity for all SIRT enzymes, and in particular SIRT1 enzyme levels as markers for autophagy and various beneficial processes associated with a caloric restricted diet, and SIRT3 levels as markers for mitochondrial function and longevity.
In yet a further series of experiments, the inventors also sought to confirm whether or not DDDA would have a modulatory effect in endothelial cells using the same markers and experimental conditions as noted above.
On the other hand, where endothelial cells were exposed to DDDA, there was a significant difference in NAMPT enzyme levels as is exemplarily depicted in FIG. 15.

cancer bearing mice = assay: Administration of DDDA to cancer bearing mice; details: mouse, in vivo
From the text: Thus, DDDA in low doses (5 g or less, or 4 g or less, or 3 g, or less, or 2 g or less, or 1 g or less) may be used for chemoprevention of HCC in healthy liver or livers of NASH/NAFLD individuals, presumably due to reduction of chronic subacute inflammation.

With `O=C(O)CCCCCCCCCCC(=O)O` [DDDA, dodecanedioic acid] the HSCs apoptosis (rat primary HSCs; CM from palmitate-treated hepatocytes, propidium iodide staining) was “induces HSCs apoptosis”, the “cell death (propidium iodide staining, flow cytometry)” value (rat primary HSCs; rat primary HSCs, CM from steatotic hepatocytes, without compound 8.39%) was 16.16% and the NAMPT enzyme levels (NAMPT) was “increased NAMPT enzyme levels”. The “effect in cancer bearing mice” value (cancer bearing mice) was “helpful for liver blastomas and potentially NASH associated carcinomas”.

— US20260053767A1, “Hepatoprotective Compositions And Methods” (Jemyll, Ltd., priority 2022, published 2026)
